In the RepoRT retention time repository:

Assay: HILIC, Waters ACQUITY UPLC BEH Amide, 100 × 2.1 mm, 1.7 µm; A: water + 0.125% formic acid + 10 mM ammonium formate; B: 5% water + 95% acetonitrile + 0.125% formic acid + 10 mM ammonium formate; gradient (min/%B) 0/100 2/100 7.7/70 9.5/40 10.25/30 12.75/100 17/100
Settings: stereoisomer not certain
Work on `CCCCCCCCCCCCCC(=O)OC(CO)CO` [2-Myristoylglycerol] yielded an LC retention time of 1.01 min.
In the case of `NC(=O)CCC(NC(=O)C1CCCN1)C(=O)O` (stereo not given) [Pro-Gln], the LC retention time is reported as 8.75 min.
For `NCC(=O)NCC(=O)NCC(=O)O` [Gly-Gly-Gly], the LC retention time was 9.18 min.
`CCNC(=O)CCC(N)C(=O)O` (stereo not given) [Theanine] gave an LC retention time of 7.66 min.
For `Nc1ccn(C2CSC(CO)O2)c(=O)n1` (stereo not given) [Lamivudine], the LC retention time was 3.4 min.
With `O=c1ccc2ccccc2[nH]1` [2-Hydroxyquinoline] the LC retention time was 1.51 min.
`Nc1c2c(nc3ccccc13)CCCC2` [Tacrine] showed an LC retention time of 3.86 min.
For `Cn1cnc2c(ncn2C2OC(CO)C(O)C2O)c1=N` (stereo not given) [1-Methyladenosine], the LC retention time was 7.46 min.
For `CC(C)CC1NC(=O)C2CCCN2C1=O` (stereo not given) [Cyclo(Leu-Pro)], the LC retention time was 1.29 min.
With `CSCC1OC(n2cnc3c(N)ncnc32)C(O)C1O` (stereo not given) [5'-Methylthioadenosine] the LC retention time was 2.49 min.
Work on `CC(=O)n1ccnc1` [1-Acetylimidazole] yielded an LC retention time of 1.37 min.
In the case of `CC1OC(Oc2c(-c3ccc(O)c(O)c3)oc3cc(O)cc(O)c3c2=O)C(O)C(O)C1O` (stereo not given) [Quercetin-3-ramnoside], the LC retention time is reported as 4.7 min.
For `O=C(O)C=Cc1ccc(O)cc1` [p-Coumaric acid], the LC retention time was 1.38 min.
`NC(=O)NCCCC(N)C(=O)O` (stereo not given) [Citrulline] gave an LC retention time of 8.74 min.
Work on `CCCc1nc(C)c2c(=O)[nH]c(-c3cc(S(=O)(=O)N4CCN(CC)CC4)ccc3OCC)nn12` [Vardenafil] yielded an LC retention time of 1.7 min.
`NC(=O)C(N)Cc1c[nH]c2ccccc12` (stereo not given) [Tryptophanamide] gave an LC retention time of 5.91 min.
Compound `CC(=O)NC(CO)C(=O)O` (stereo not given) [N-Acetylserine] has an LC retention time of 7.67 min.
In the case of `Nc1ncnc2c1ncn2C1CC(O)C(CO)O1` (stereo not given) [2'-Deoxyadenosine], the LC retention time is reported as 3.92 min.
Work on `CC(O)C(O)C1=Nc2c(nc(N)[nH]c2=O)NC1` (stereo not given) [7,8-Dihydrobiopterin] yielded an LC retention time of 7.18 min.
Compound `O=CCc1ccccc1` [Phenylacetaldehyde] has an LC retention time of 5.4 min.
For `NCCCC(N)C(=O)O` (stereo not given) [Ornithine], the LC retention time was 9.6 min.
With `CN(C)C(=N)N=C(N)N` [Metformin] the LC retention time was 5.44 min.
With `CC(=O)NCCC(=O)NC(Cc1cnc[nH]1)C(=O)O` [N-Acetyl-L-carnosine] the LC retention time was 8.35 min.
Work on `C[N+](C)(C)C(Cc1c[nH]c(=S)[nH]1)C(=O)[O-]` (stereo not given) [Ergothioneine] yielded an LC retention time of 7.74 min.
For `COc1cc(-c2oc3cc(O)cc(O)c3c(=O)c2OC2OC(COC3OC(C)C(O)C(O)C3O)C(O)C(O)C2O)ccc1O` (stereo not given) [Isorhamnetin-3-O-rutinoside], the LC retention time was 6.02 min.
Compound `COC(=O)Nc1nc2ccc(C(=O)c3ccc(F)cc3)cc2[nH]1` [Flubendazole] has an LC retention time of 1.16 min.
`COC(=O)CN` [Methylglycinate] showed an LC retention time of 5.29 min.
For `CC12CCC3c4ccc(O)cc4CCC3C1CC(OC1OC(C(=O)O)C(O)C(O)C1O)C2O` (stereo not given) [16-Glucuronide-estriol], the LC retention time was 6.49 min.
`CC(=O)C1(O)Cc2c(O)c3c(c(O)c2C(OC2CC(N)C(O)C(C)O2)C1)C(=O)c1ccccc1C3=O` (stereo not given) [Idarubicin] showed an LC retention time of 5.42 min.
With `COC1C=COC2(C)Oc3c(C)c(O)c4c(O)c(c5c(nc6cc(C)ccn65)c4c3C2=O)NC(=O)C(C)=CC=CC(C)C(O)C(C)C(O)C(C)C(OC(C)=O)C1C` (stereo not given) [Rifaximin] the LC retention time was 1.18 min.
Work on `CC1=C2C3OC(=O)C(C)C3CCC2(C)C=CC1=O` (stereo not drawn) [alpha-Santonin] yielded an LC retention time of 1.07 min.
Work on `Nc1ncnc2c1ncn2C1OC(CO)C(OP(=O)(O)O)C1O` (stereo not given) [Adenosine-3-monophosphate] yielded an LC retention time of 8.88 min.
In the case of `CC12CCC(=O)C=C1CCC1C2C(O)CC2(C)C1CCC2(O)C(=O)CO` (stereo not given) [Hydrocortisone], the LC retention time is reported as 2.56 min.
For `NC(CCC(=O)O)C(=O)NC(Cc1ccccc1)C(=O)O` (stereo not given) [Glu-Phe], the LC retention time was 8.2 min.
Compound `OCC1OC(OC2C(O)OC(CO)C(O)C2O)C(O)C(O)C1O` (stereo not drawn) [2-alpha-Mannobiose] has an LC retention time of 9.47 min.
`CN1CC(=O)NC1=N` [Creatinine] gave an LC retention time of 4.93 min.
`CC12CCC(=O)C=C1CCC1C2C(O)CC2(C)C(C(=O)CO)CCC12` (stereo not given) [Corticosterone] showed an LC retention time of 1.25 min.
`OCc1c[nH]c2ccccc12` [Indole-3-carbinol] showed an LC retention time of 1.24 min.
For `O=c1ncc(F)c[nH]1` [5-Fluro-2-pyrimidone], the LC retention time was 1.77 min.
Compound `CC(O)C(N)=O` (stereo not given) [Lactamide] has an LC retention time of 1.74 min.
For `COCCCCC(=NOCCN)c1ccc(C(F)(F)F)cc1` [Fluvoxamine], the LC retention time was 2.93 min.
Compound `CNCCCCOc1ccccc1Cc1ccccc1` [Bifemelane] has an LC retention time of 2.46 min.
With `CCC(C)n1ncn(-c2ccc(N3CCN(c4ccc(OCC5COC(Cn6cncn6)(c6ccc(Cl)cc6Cl)O5)cc4)CC3)cc2)c1=O` (stereo not given) [Itraconzaole] the LC retention time was 0.97 min.
Work on `C#CC1(O)CCC2C3CCc4cc(O)ccc4C3CCC21C` (stereo not given) [Ethynylestradiol] yielded an LC retention time of 0.99 min.
In the case of `CCCCCC(=O)OC(CC(=O)[O-])C[N+](C)(C)C` [Hexanoyl-L-carnitine], the LC retention time is reported as 5.09 min.
